The numbers were not newly measured in patent publication US8829054B1, “Ready-to-use co-solvents pharmaceutical composition in modified flexible plastic container” (Welgrace Research Group, priority 2013, dated 2014), which cites them from elsewhere.

The conditions of the data set: published literature, Rosenberg et al. 1988.

Turning to `COC(=O)CCc1ccc(OCC(O)CNC(C)C)cc1.Cl` (stereo not shown) [Esmolol, methyl3-[4-[2-hydroxy-3-(isopropylamino)propoxy]phenyl]propionate hydrochloride], the “activation energies for Esmolol decompositions” value is 19 to 21.5 kcal/mol.
